Test results as given in patent publication US5498795A, “Acetylenes disubstituted with hydroxyaryl and aryl or heteroaryl groups having retinoid-like biological activity” (Allergan, Inc., priority 1994, dated 1996).

Tested on: ornithine decarboxylase (ODC)
Assay: ODC assay: inhibition of TPA induction of ornithine decarboxylase
Assay type: in vivo
Text: The retinoic acid-like activity of these compounds is confirmed through the classic measure of retinoic acid activity involving the effects of retinoic acid on ornithine decarboxylase. The original work on the correlation between retinoic acid and decrease in cell proliferation was done by Verma & Boutwell, Cancer Research, 1977, 37,2196-2201. That reference discloses that ornithine decarboxylase (ODC) activity increased precedent to polyamine biosynthesis. It has been established elsewhere that increases in polyamine synthesis can be correlated or associated with cellular proliferation. Thus, if ODC activity could be inhibited, cell hyperproliferation could be modulated. Although all cases for ODC activity increases are unknown, it is known that 12-0-tetradecanoylphorbol-13-acetate (TPA) induces ODC activity. Retinoic acid inhibits this induction of ODC activity by TPA. […] Activity of exemplary compounds of the present invention in the above-described ODC assay is disclosed in Table 2 which provides either […] (or other measured per cent inhibition at the indicated concentration) for the respective exemplary compound.

SMILES | % of inhib (conc 100) [%] | % of inhib (conc 300) [%]
CC(C)(C)c1ccc(C#Cc2ccc(C(=O)O)cn2)cc1O [Compound 20, 6-[2-[[2-t-Butyl-1-hydroxy]-5-phenyl]ethyn-1-yl]nicotinic acid] | 64 | 
O=C(O)c1ccc(C#Cc2ccc(C34CC5CC(CC(C5)C3)C4)c(O)c2)nc1 [Compound 23, 6-[2-[[2-(1-adamantyl)-1-hydroxy]-5-phenyl]-ethyn-1-yl]nicotinic acid] |  | 55
